Read-outs that look alike come from different tables or passages of the source.
T1: human CD58 (human, UniProt P19256 29-250)
T1 construct: whole, on cells
T1 sequence (looked up): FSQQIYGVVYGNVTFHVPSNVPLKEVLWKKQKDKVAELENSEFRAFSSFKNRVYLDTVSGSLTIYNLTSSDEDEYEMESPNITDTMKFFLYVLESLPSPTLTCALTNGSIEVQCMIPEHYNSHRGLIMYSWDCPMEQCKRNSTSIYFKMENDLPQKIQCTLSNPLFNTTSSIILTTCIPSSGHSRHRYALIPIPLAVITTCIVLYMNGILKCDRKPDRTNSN

B1: CSR CD2z (chimeric stimulatory receptor: CD2 extracellular, transmembrane and cytoplasmic domains fused to the CD3z intracellular domain) (receptor)
chain: KEITNALETWGALGQDINLDIPSFQMSDDIDDIKWEKTSDKKKIAQFRKEKETFKEKDTYKLFKNGTLKIKHLKTDDQDIYKVSIYDTKGKNVLEKIFDLKIQERVSKPKISWTCINTTLTCEVMNGTDPELNLYQDGKHLKLSQRVITHKWTTSLSAKFKCTAGNKVSKESSVEPVSCPEKGLDIYLIIGICGGGSLLMVFVALLVFYITKRKKQRSRRNDEELETRAHRVATEERGRKPHQIPASTPQNPATSQHPPPPPGHRSQAPSHRPPPPGHRVQHQPQKRPPAPSGTQVHQQKGPPLPRPRVQPKPPHGAAENSLSPSSNRVKFSRSADAPAYKQGQNQLYNELNLGRREEYDVLDKRRGRDPEMGGKPRRKNPQEGLYNELQKDKMAEAYSEIGMKGERRRGKGHDGLYQGLSTATKDTYDALHMQALPPR
notes: Expressed from mRNA on the surface of primary human T cells (degranulation assays) or K562 cells (staining); also called CSR WT CD2z; WT CD2z CSR

Assays:
[1] = test system: cells; conditions: cited from earlier work
[2] = cited from earlier work
[3] = test system: cells; assay: AP1903 amount needed in vitro for effective signaling of cells; type: cell-based; conditions: 1600 Da MW
Description: The fixed dose of AP1903 for injection used, for example, may be 0.4 mg/kg intravenously infused over 2 hours. The amount of AP1903 needed in vitro for effective signaling of cells is 10-100 nM (1600 Da MW). This equates to 16-160 μg/L or ^˜0.016-1.6 μg/kg (1.6-160 μg/kg). Doses up to 1 mg/kg were well-tolerated in the Phase I study of AP1903 described above. Therefore, 0.4 mg/kg may be a safe and effective dose of AP1903 for this Phase I study in combination with the therapeutic cells.

[4] = biological target: T1, human CD58; assay: inferred from T-cell degranulation (CD107a) against K562/Rat2 cells overexpressing human CD58
Description: FIG. 23D is a series of flow cytometry plots showing the expression of CD48, CD58 or CD59 on K562 and Rat2 cells. To confirm possible ligands for the CSR WT CD2z molecule, a panel of known and suspected ligands including human CD48, CD58, and CD59 were tested. Degranulation of engineered T cells was evaluated against the cell lines K562 and Rat2 that were made to overexpress the target ligands and confirmed for expression by FACS staining. Red histograms are unstained cells and blue histograms are cells that were electroporated/lipofected with mRNA and then stained for expression of the respective marker by FACS.
FIG. 23E is a bar graph showing that CSR CD2z recognizes human CD58, but not CD48 or CD59. To confirm possible ligands for the CSR WT CD2z molecule, a panel of known and suspected ligands including human CD48, CD58, and CD59 were tested. Degranulation of engineered T cells was evaluated against the cell lines K562 and Rat2 that were made to overexpress the target ligands and confirmed for expression by FACS staining. Cells were electroporated/lipofected with mRNA and then stained for expression of the respective marker by FACS. […] T cell degranulation is a surrogate of T cell killing that can be measured by FACS staining for intracellular CD107a expression following coculture with target cell lines expressing target antigen. […]

Molecule | amount needed in vitro for effective signaling of cells [1] | plasma levels versus dose ([2]; 0.01, 0.05, 0.1, 0.5 and 1.0 mg/kg) | mean Cmax ([2]; 0.01-1.0 mg/kg dose range, IV over 2 hours) | plasma level as % of maximal concentration ([2]; 0.5 hours post-dose) | plasma level as % of maximal concentration ([2]; 2 hours post-dose) | plasma level as % of maximal concentration ([2]; 10 hours post-dose) | well-tolerated doses ([2]; Phase I study) | amount needed for effective signaling, converted [3] | binding result [4]
CC[C@H](C(=O)N1CCCC[C@H]1C(=O)O[C@H](CCc1ccc(OC)c(OC)c1)c1cccc(OCC(=O)NCCNC(=O)COc2cccc([C@@H](CCc3ccc(OC)c(OC)c3)OC(=O)[C@@H]3CCCCN3C(=O)[C@@H](CC)c3cc(OC)c(OC)c(OC)c3)c2)c1)c1cc(OC)c(OC)c(OC)c1 (relative stereo) [AP1903, 2-Piperidinecarboxylic acid, 1-[(2S)-1-oxo-2-(3,4,5-trimethoxyphenyl)butyl]-, 1,2-ethanediylbis[imino(2-oxo-2,1-ethanediyl)oxy-3,1-phenylene[(1R)-3-(3,4-dimethoxyphenyl)propylidene]]ester, [2S-[1(R*),2R*[S*[S*[1(R*),2R*]]]]]-(9Cl)] | 10 to 100 nM | directly proportional to dose | 10 to 1275 ng/mL | approximately 18% | ~7% | ~1% | up to 1 mg/kg | 16 to 160 µg/L | 
B1 |  |  |  |  |  |  |  |  | binds

Reference: patent publication US20220389077A1, “ALLOGENEIC CELL COMPOSITIONS AND METHODS OF USE” (Poseida Therapeutics, Inc., priority 2018, published 2022)
